The source of these data is PubChem BioAssay (NCI).

Test systems include ACHN renal; CAKI-1 renal; HCT-116 colon; K-562 leukemia; MDA-MB-435; NCI-H226 lung; NCI-H460 lung; NCI-H522 lung; OVCAR-4 ovarian; PC-3 prostate; SK-MEL-5 melanoma; SW-620 colon; UACC-257 melanoma; UO-31 renal.
What all share (experiment): NCI tumour cell line growth inhibition, 48 h

Molecules are shown by their SMILES.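 Interpolation was linear, between the two tested concentrations surrounding the appropriate level; five concentrations were tested over 48 hours in 96-well plates. TGI is the concentration that stops growth completely.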

`Cc1nn(-c2ccccc2)c2nc3c(c(C)nn3-c3ccccc3)c(-c3ccccc3Br)c12`: the TGI in the test on ACHN renal, in the test with CAKI-1 renal, in the test on HCT-116 colon, with K-562 leukemia, in the test on MDA-MB-435 and with NCI-H226 lung was more than 100 µM in each case. For the same compound, the TGI with NCI-H460 lung, in the test on NCI-H522 lung, in the test on OVCAR-4 ovarian, in the test with PC-3 prostate, with SK-MEL-5 melanoma and with SW-620 colon was more than 100 µM throughout. The TGI with UACC-257 melanoma and with UO-31 renal was more than 100 µM in each case.

For the compound `O=C(/C=C/c1c(O)c2ccccc2[nH]c1=O)CC(=O)C(=O)Nc1cccc(O)c1`, the TGI in the test on ACHN renal, in the test on CAKI-1 renal, in the test on HCT-116 colon, with K-562 leukemia, in the test with MDA-MB-435 and with NCI-H226 lung was more than 100 µM throughout. The TGI in the test on NCI-H460 lung, in the test with NCI-H522 lung, in the test on OVCAR-4 ovarian, with PC-3 prostate, in the test with SK-MEL-5 melanoma and in the test with SW-620 colon was more than 100 µM throughout. Moreover, the TGI with UACC-257 melanoma and in the test with UO-31 renal was more than 100 µM each time.

Turning to `CC(C)[Si](OCC/C=C/C1CCC(=O)C1C(O)C1CCCCC1)(C(C)C)C(C)C` (stereo not given), the TGI stood at 27.9 µM in the test on ACHN renal; 28.5 µM in the test on CAKI-1 renal; 28 µM in the test on HCT-116 colon; 47 µM in the test on K-562 leukemia; 34.5 µM in the test on MDA-MB-435; 30 µM with NCI-H226 lung. For the same compound, the TGI came to 30.7 µM in the test with NCI-H460 lung; 25.3 µM in the test on NCI-H522 lung; 38.6 µM in the test on OVCAR-4 ovarian; 31.5 µM with PC-3 prostate; 29 µM in the test with SK-MEL-5 melanoma; 31.3 µM with SW-620 colon. The TGI with UACC-257 melanoma came to 29.5 µM; with UO-31 renal, 30.2 µM.

On to `O=c1oc2ccccc2c(O)c1C(c1ccc2ccccc2c1)c1c(O)c2ccccc2oc1=O`, for which the TGI in the test on ACHN renal is 41.7 µM; in the test with CAKI-1 renal, 54.7 µM; with HCT-116 colon it was more than 100 µM; with K-562 leukemia it was more than 100 µM; in the test with MDA-MB-435, 59.7 µM; in the test with NCI-H226 lung it was 67.9 µM. The TGI in the test on NCI-H460 lung is 73.2 µM; in the test on NCI-H522 lung, 48.5 µM; in the test on OVCAR-4 ovarian it was more than 100 µM; in the test with PC-3 prostate, more than 100 µM; with SK-MEL-5 melanoma, 54.4 µM; with SW-620 colon, 87.7 µM. The TGI with UACC-257 melanoma was more than 100 µM; with UO-31 renal it was 35.4 µM.

For `NC(=O)CC1(O)C=CC(=O)C=C1`, the TGI in the test with ACHN renal, in the test with CAKI-1 renal, in the test on HCT-116 colon, in the test on K-562 leukemia, with MDA-MB-435 and with NCI-H226 lung was more than 100 µM throughout. The TGI with NCI-H460 lung, with NCI-H522 lung, with OVCAR-4 ovarian, in the test on PC-3 prostate, in the test on SK-MEL-5 melanoma and in the test with SW-620 colon was more than 100 µM each time. Moreover, the TGI in the test with UACC-257 melanoma and with UO-31 renal was more than 100 µM throughout.

Turning to `O=C(n1[nH]c(=O)n(-c2ccc([N+](=O)[O-])cc2)c1=O)C(Cl)(Cl)Cl`, the TGI with ACHN renal, in the test with CAKI-1 renal, in the test with HCT-116 colon, with K-562 leukemia, in the test on MDA-MB-435 and in the test with NCI-H226 lung was more than 75 µM throughout. In addition, the TGI in the test on NCI-H460 lung, with NCI-H522 lung, in the test with OVCAR-4 ovarian, in the test on PC-3 prostate, with SK-MEL-5 melanoma and with SW-620 colon was more than 75 µM throughout. Moreover, the TGI with UACC-257 melanoma and in the test on UO-31 renal was more than 75 µM in each case.

With `CN(C)Cc1cc(C(=O)/C=C/c2c(Cl)cccc2Cl)cc(CN(C)C)c1O`, the TGI in the test with ACHN renal came to 12.4 µM; with CAKI-1 renal it was 6.74 µM; in the test with HCT-116 colon, 19.6 µM; in the test with K-562 leukemia, 13.4 µM; in the test with MDA-MB-435, 21.9 µM; in the test with NCI-H226 lung, 32.4 µM. The TGI in the test on NCI-H460 lung was found to be 13 µM; in the test with NCI-H522 lung, 10.7 µM; with OVCAR-4 ovarian, 24.8 µM; in the test with PC-3 prostate, 19 µM; with SK-MEL-5 melanoma, 13.9 µM; in the test with SW-620 colon, 13.9 µM. Moreover, the results for the TGI in the test with UACC-257 melanoma and with UO-31 renal were 16.9 µM and 8.85 µM, respectively.

For `COC(=O)CC1CN(C(=O)OCc2ccccc2)C(C)(C)O1` (stereo not given), the TGI in the test on ACHN renal is more than 100 µM; in the test on CAKI-1 renal, more than 100 µM; in the test with HCT-116 colon, more than 100 µM; in the test on K-562 leukemia, more than 100 µM; in the test on MDA-MB-435, more than 100 µM; with NCI-H226 lung it was 22.7 µM. Further, the TGI in the test on NCI-H460 lung, with NCI-H522 lung, with OVCAR-4 ovarian, in the test with PC-3 prostate, in the test with SK-MEL-5 melanoma and in the test with SW-620 colon was more than 100 µM in each case. For the same compound, the TGI with UACC-257 melanoma and with UO-31 renal was more than 100 µM in each case.

With `Cc1ccc(S(=O)(=O)Oc2coc(CO)cc2=O)cc1`, the TGI with ACHN renal was 38.2 µM; in the test with CAKI-1 renal, 10.4 µM; in the test on HCT-116 colon, 15 µM; with K-562 leukemia, more than 100 µM; with MDA-MB-435, 30.7 µM; in the test with NCI-H226 lung, more than 100 µM. Besides, the TGI with NCI-H460 lung turned out to be 31.1 µM; in the test with NCI-H522 lung, 3.71 µM; in the test with OVCAR-4 ovarian, 32.3 µM; in the test on PC-3 prostate it was 38.2 µM; in the test on SK-MEL-5 melanoma, 33.7 µM; in the test with SW-620 colon, 42 µM. The values for the TGI with UACC-257 melanoma and with UO-31 renal were 43.4 µM and 27.3 µM, respectively.

For `NC(=Nc1ccc(Cl)c(Cl)c1)c1ccccc1N`, the TGI was more than 100 µM in the test on ACHN renal; more than 100 µM with CAKI-1 renal; 57.1 µM in the test on HCT-116 colon; 41.9 µM in the test with K-562 leukemia; 42.2 µM with MDA-MB-435; more than 100 µM with NCI-H226 lung. In addition, the TGI in the test on NCI-H460 lung is more than 100 µM; in the test with NCI-H522 lung, 32.6 µM; in the test on OVCAR-4 ovarian, more than 100 µM; in the test with PC-3 prostate, 92.4 µM; in the test on SK-MEL-5 melanoma it was 54.7 µM; in the test on SW-620 colon it was more than 100 µM. The TGI in the test on UACC-257 melanoma was 92.7 µM; in the test with UO-31 renal it was more than 100 µM.
